Measured values from patent US11350632B2, “Methods, compositions and systems for killing arthropods” (Imerys USA, Inc., priority 2016, dated 2022).

Assays:
Assay in all cases: Field trial weekly bioassay on pre-treated substrate
Assay type in all cases: in vivo
[1] = tested on: Aedes aegypti; design: mortality found (summary of field trial): concentration or dose not given beside the values
Experimental: (§1) During a field trial in New Orleans, bioassays were performed with (1) the expanded, milled ultrafine perlite of Example 1, (2) a lambda-cyhalothrin insecticide (BASF) as positive control, and (3) a negative control (water only). Six samples of each insecticide (1) and (2) and the control (3) were tested against mosquito species Aedes aegypti (dengue and zika vector), Aedes albopictus (tiger mosquito), and Culex quinquefasciatus (nuisance mosquito) by spraying wood chips stored under houses using a STIHL SR 200 backpack sprayer (18 houses total). The houses were selected based on housing structure (raised house), backyard vegetation (green and lush), and location (suburban neighborhood).
(§2) The lambda cyhalothrin (industry standard insecticide) was prepared according to manufacturer instructions. Lambda cyhalothrin insecticide was diluted with water for spray application. First the application tank was filled with one-half to three-fourths volume of water. The pH of the water was controlled between 5 and 7 using a buffering agent if necessary to adjust the pH. Next, lambda cyhalothrin insecticide was slowly added to the applicator tank water with maximum agitation. Finally, the tank was filled to the desired volume with continuous agitation while applying the spray. To prepare the perlite insecticide spraying solutions, two-thirds of a gallon of water, 0.32 ounces of non-ionic surfactant (Ninex MT615), and 2 lbs expanded, milled ultrafine perlite were thoroughly blended together in a spray tank. Another one-third gallon of water was then added for a total 1 gallon of spray solution containing 20% of ultrafine perlite mechanical insecticide, 79% of water and 1% of Ninex MT615 as dispersant. The ultrafine perlite solution was mixed directly prior to spraying.
(§3) The ultrafine perlite insecticide, the positive control (lambda cyhalothrin) and the negative control (water) were sprayed directly under the raised houses and porches (which included eaves if reachable) and under vegetation with an applicator. Pre-treated substrates were also prepared for each location by applying the corresponding insecticide or control to a piece of pine. The target coverage was 5-8 ounces per 100 ft^2, with an average coverage of about 10 g/m^2 to 15 g/m^2.
(§4) Adult mosquitos for each species were introduced to each location, and were identified and counted two weeks prior to the start of the bioassays. Weekly bioassays were performed to test the efficacy of the insecticides over time by collecting a pre-treated substrate from each site and placing ˜10 female mosquitos of the corresponding species into a labeled bioassay cup with the substrate. The cup was then placed in a growth chamber/counter (depending on temperature) for 1 hour and then 24 hours with sugar solution. The number of dead and live mosquitos was recorded and compared to determine the percent mortality. Results are shown in Tables 8-10, in which 100% indicates complete mortality of mosquitoes and 0% indicates zero mortality (no mosquito deaths).

[2] = tested on: Aedes albopictus; design: concentration or dose not given beside the values
Experimental: as §1, §2, §3, §4

[3] = tested on: Culex quinquefasciatus; design: concentration or dose not given beside the values
Experimental: as §1, §2, §3, §4

[4] = Week 0, ~10 female mosquitos with pre-treated substrate
[5] = week not stated, each mosquito species

## CC1(C)[C@H](C(=O)O[C@H](C#N)c2cccc(Oc3ccccc3)c2)[C@@H]1/C=C(\Cl)C(F)(F)F (racemic) [Lambda cyhalothrin, lambda-cyhalothrin]
[1]; [4]
  Mortality (%) of Andes aegypti: 0%
[1]; Week 1
  Mortality (%) of Andes aegypti: 0%
[1]; Week 2
  Mortality (%) of Andes aegypti: 100%
[1]; Week 3
  Mortality (%) of Andes aegypti: 100%
[1]; Week 4
  Mortality (%) of Andes aegypti: 100%
[1]; Week 5 (heavy rainfall)
  Mortality (%) of Andes aegypti: 100%
[1]; Week 6
  Mortality (%) of Andes aegypti: 100%
[1]; Week 7
  Mortality (%) of Andes aegypti: 100%
[1]; Week 8
  Mortality (%) of Andes aegypti: 100%
[1]; [5]
  mortality found (summary of field trial): 100%
[2]; [4]
  Mortality (%) of Andes albopictus: 0%
[2]; Week 1
  Mortality (%) of Andes albopictus: 0%
[2]; Week 2
  Mortality (%) of Andes albopictus: 100%
[2]; Week 3
  Mortality (%) of Andes albopictus: 100%
[2]; Week 4
  Mortality (%) of Andes albopictus: 100%
[2]; Week 5 (heavy rainfall)
  Mortality (%) of Andes albopictus: 100%
[2]; Week 6
  Mortality (%) of Andes albopictus: 100%
[2]; Week 7
  Mortality (%) of Andes albopictus: 100%
[2]; Week 8
  Mortality (%) of Andes albopictus: 100%
[2]; [5]
  mortality found (summary of field trial): 100%
[3]; [4]
  Mortality (%) of Culex quinquefasciatus: 0%
[3]; Week 1
  Mortality (%) of Culex quinquefasciatus: 0%
[3]; Week 2
  Mortality (%) of Culex quinquefasciatus: 100%
[3]; Week 3
  Mortality (%) of Culex quinquefasciatus: 100%
[3]; Week 4
  Mortality (%) of Culex quinquefasciatus: 97%
[3]; Week 5 (heavy rainfall)
  Mortality (%) of Culex quinquefasciatus: 100%
[3]; Week 6
  Mortality (%) of Culex quinquefasciatus: 93%
[3]; Week 7
  Mortality (%) of Culex quinquefasciatus: 100%
[3]; Week 8
  Mortality (%) of Culex quinquefasciatus: 100%
[3]; [5]
  mortality found (summary of field trial): 100%
